In paper PMC7048775, “Single-molecule imaging of PI(4,5)P2 and PTEN in vitro reveals a positive feedback mechanism for PTEN membrane binding” (Communications Biology, 2020):

Key:
PTEN (PTEN-Halo) [1] = target: T1, PTEN (PTEN-Halo) (Dictyostelium discoideum, UniProt Q8T9S7); assay: single-molecule TIRF imaging on supported planar lipid bilayer, dissociation curve; settings: 10 mol% PI(4,5)P2 in DOPC bilayer, pH 8.0, 300 mM NaCl, 21 °C; membrane dissociation of protein, two binding states; no affinity constant
T1 sequence (Q8T9S7 1-533): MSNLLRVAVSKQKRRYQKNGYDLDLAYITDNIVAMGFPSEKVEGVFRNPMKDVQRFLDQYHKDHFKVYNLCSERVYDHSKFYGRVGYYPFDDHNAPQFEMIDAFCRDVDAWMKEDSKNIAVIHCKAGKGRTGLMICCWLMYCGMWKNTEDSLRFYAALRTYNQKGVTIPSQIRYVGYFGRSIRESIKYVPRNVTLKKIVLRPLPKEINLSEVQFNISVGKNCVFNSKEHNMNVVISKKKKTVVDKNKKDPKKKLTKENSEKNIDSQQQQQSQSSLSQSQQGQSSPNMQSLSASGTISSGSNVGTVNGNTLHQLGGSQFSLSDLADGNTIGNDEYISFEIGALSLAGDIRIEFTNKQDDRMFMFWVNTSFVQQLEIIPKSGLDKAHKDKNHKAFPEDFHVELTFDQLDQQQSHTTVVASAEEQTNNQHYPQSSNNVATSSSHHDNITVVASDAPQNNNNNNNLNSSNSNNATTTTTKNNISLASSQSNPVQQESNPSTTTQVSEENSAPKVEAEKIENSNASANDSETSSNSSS

PTEN (PTEN-Halo) [2] = target: T2, PTEN (PTEN-Halo) (Dictyostelium discoideum, UniProt Q8T9S7, R47A); assay: as above; assay type: binding; settings: 10 mol% PI(4,5)P2 in DOPC bilayer, pH 8.0, 300 mM NaCl, 21 °C
PTEN (PTEN-Halo) [3] = target: T2, PTEN (PTEN-Halo); assay: phosphate release, BIOMOL Green, absorbance […] nm; assay type: biochemical; settings: 5 nmol substrate in 50 μL, pH 8.0, 2 mM DTT, 21 °C, 2 h
PTEN (PTEN-Halo) [4] = target: PTEN (PTEN-Halo) (Dictyostelium discoideum, UniProt Q8T9S7, K11A/K13A/R14A/R15A); assay: phosphate release, BIOMOL Green, absorbance […] nm; assay type: biochemical; settings: 5 nmol substrate in 50 μL, pH 8.0, 2 mM DTT, 21 °C, 2 h
PTEN (PTEN-Halo) (Dictyostelium discoideum, UniProt Q8T9S7, K11A/K13A/R14A/R15A), sequence (Q8T9S7 whole entry K11A/K13A/R14A/R15A): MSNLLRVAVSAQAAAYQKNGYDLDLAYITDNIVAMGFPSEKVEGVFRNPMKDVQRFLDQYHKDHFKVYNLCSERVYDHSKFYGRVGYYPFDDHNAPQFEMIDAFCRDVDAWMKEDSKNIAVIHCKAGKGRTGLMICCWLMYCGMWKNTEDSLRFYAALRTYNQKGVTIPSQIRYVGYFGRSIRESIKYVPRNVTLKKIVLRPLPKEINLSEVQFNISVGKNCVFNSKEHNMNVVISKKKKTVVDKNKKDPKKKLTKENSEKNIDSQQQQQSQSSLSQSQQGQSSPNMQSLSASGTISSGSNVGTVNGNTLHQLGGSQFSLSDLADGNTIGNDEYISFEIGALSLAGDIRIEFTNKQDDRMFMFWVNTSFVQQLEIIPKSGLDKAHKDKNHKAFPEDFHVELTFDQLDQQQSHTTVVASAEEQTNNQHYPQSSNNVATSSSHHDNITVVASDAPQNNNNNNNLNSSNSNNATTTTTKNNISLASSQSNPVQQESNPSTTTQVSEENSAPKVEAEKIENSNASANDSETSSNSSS

T2 sequence (Q8T9S7 whole entry R47A): as the sequence (Q8T9S7 whole entry K11A/K13A/R14A/R15A) above, with A11K, A13K, A14R, A15R, R47A counted along it

average dissociation rate constant k (PTEN (PTEN-Halo) [1]) [s⁻¹]	Compound	average dissociation rate constant k (PTEN (PTEN-Halo) [2])	phosphate release, BIOMOL Green, absorbance 620 nm (PTEN (PTEN-Halo) [3])	phosphate release, BIOMOL Green, absorbance 620 nm (PTEN (PTEN-Halo) [4])
15.9 ± 2.8	CCCCCCCC/C=C\CCCCCCCC(=O)OC[C@H](COP(=O)(O)O[C@@H]1[C@H](O)[C@H](O)[C@@H](OP(=O)(O)O)[C@H](OP(=O)(O)O)[C@H]1O)OC(=O)CCCCCCC/C=C\CCCCCCCC [PI(4,5)P2, 1,2-dioleoyl-sn-glycero-3-phospho-(1′-myo-inositol-4′,5′-bisphosphate)]	both mutants exhibited faster dissociation than wild type		
	CCCCCCCC(=O)OC[C@H](COP(=O)(O)O[C@H]1[C@H](O)[C@@H](OP(=O)(O)O)[C@H](OP(=O)(O)O)[C@@H](OP(=O)(O)O)[C@H]1O)OC(=O)CCCCCCC [diC8-PI(3,4,5)P3]		Phosphatase activities of the mutants were comparable to each other	Phosphatase activities of the mutants were comparable to each other
